According to patent US20240360122A1, “POLYMORPHIC FORMS AND SALTS OF A GLP-1R AGONIST” (Terns (Suzhou) Biotechnology Co., Ltd., priority 2023, published 2024):
Converted amounts (≈) assume the structure as drawn. “Also recorded” adds a separate entry of the source. Structures can show the parent of a compound that is named as a salt.

What was measured:
[1] = Chemical stability studies of Compound 1 meglumine salt at high temperatures; type: physicochemical; settings: solution and solid states
[2] = Approximate solubility in different solvents at RT; type: physicochemical; settings: RT; for solubility: organic solvent or mixture
Experimental: For each experiment, approximately 2 mg of sample was added into a 3-mL glass vial. Corresponding solvents were then added stepwise (50/50/200/700/1000 μL) into the vials until the solids were dissolved visually or a total volume of 2 mL was reached. Solubility results summarized in Table 64 to Table 66 were used to guide the solvent selection in polymorph screening design.

[3] = Hygroscopicity by DVS at 25° C.; type: physicochemical
Experimental: DVS was measured via a SMS (Surface Measurement Systems) DVS Intrinsic. The relative humidity at 25° C. were calibrated against deliquescence point of LiCl, Mg(NO3)2 and KCl.

[4] = Kinetic solubility in water and bio-relevant media (SGF, FaSSIF, FeSSIF) at 37° C.; type: physicochemical; settings: for S: Solubility: calculated by freeform; for FC: Form change: residual solids by XRPD
Procedure, shortened: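 Compound rolled at 37 °C (~25 rpm) in water, SGF (pH 1.8, NaCl, Triton X-100), FaSSIF (pH 6.5 phosphate, SIF powder) or FeSSIF (pH 5.0 acetate, SIF powder). Samples at 1, 2, 4 and 24 h were centrifuged and 0.45 μm-filtered; filtrate concentration and pH measured, residual solid checked by XRPD.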

[5] = pH solubility in pH 1.0-8.0 buffers at RT; type: physicochemical; settings: thermodynamic from solid; for solubility at 24 h: LOQ = 0.0001 mg/mL; for solubility: pH buffers, 2 and 24 hours
Experimental: The procedures were listed below:
1. […] Add 2 ml, of the corresponding medium.
2. Mixed well and stirred at RT (1000 rpm). Check the pH and adjust it back to the target pH after dosing.
3. Sampled after 2 hours and 24 hours. The supernatant was isolated by centrifugation (12000 rpm, 5 min) and filtration (0.22 μm, PTFE) for pH and HPLC test.

[6] = Slurry competition among Freeform Type A/C/M; type: physicochemical; settings: slurry competition in EtOAc and ACN, RT and 50° C.
Experimental: The detailed procedures are as following:
1. […] Add 1 mL corresponding solvent.
2. Magnetically stirred at RT or 50° C. for 4 hours. Filter through 0.45 μm PTFE filter to obtain clear solution.
4. Magnetically stirred at RT or 50° C. for 4 days. Tested XRPD of the wet cake.

[7] = Solid state stability at 25° C./60% RH and 40° C./75% RH for 1 week; type: physicochemical
Experimental: Each sample was added into a glass vial, sealed by parafilm with several holes, and kept under tested conditions. After one week, samples were taken for XRPD and HPLC purity test.

[8] = Characterization of Compound 1 freeform forms: form change on storage or drying (XRPD); type: physicochemical
Experimental: Starting from Compound 1 Freeform Type D, polymorph screening experiments were performed under 50 conditions using different solvent-mediated crystallization or solid transition methods. The obtained solids were characterized by XRPD. According to XRPD comparison results, a total of 16 crystal forms were discovered, named as Type A˜P. The characterization results of all the forms were listed in Table 60.
Freeform Type O was obtained after adding anti-solvent toluene into DMSO solution of Freeform Type D and drying at ambient conditions. After drying at RT under vacuum for 1 day, diffraction peaks of Freeform Type K were observed. As Freeform Type K was a DMSO solvate, it is speculated that Freeform Type O was also a DMSO solvate.

[9] = Competitive experiments of Type A and Type B in different solvent system at different temperature; type: physicochemical; settings: MeOH/MTBE system

Experimental for physchem: 0.1 M KH2PO4 solution: added 1.36 g of solid KH2PO4 into a 100-mL volumetric flask, dissolve with ultrapure water and dilute to volume. 0.1 M K2HPO4 solution: added 1.74 g of solid K2HPO4 into a 100-mL volumetric flask, dissolve with ultrapure water and dilute to volume.
Transferred 100 mL of 0.1 M K2HPO4 solution and 30 mL of 0.1 M KH2PO4 to a 250-mL beaker and mix well. Adjusted to pH 7.4 with the KH2PO4 solution to obtain the aqueous pH 7.4 buffer. Pre-equilibrated n-octanol and aqueous buffer (phosphate pH 7.4 buffer) by adding 10 mL n-octanol and 10 mL aqueous buffer into a glass vial and keep it rolling for 24 hrs.
Weighed approximately 1.0 mg solids into a 3-mL glass vial which contained 2.0 mL of saturated n-octanol and accelerate dissolution by ultrasound sonication. Added 1.0 mL of complementary saturated aqueous buffer into the vial. Prepare samples in triplicate. Sealed the glass vial and mix on a rotary mixer at 25° C. for 24 hrs.
The phases were separated. The pH of the aqueous phase was measured by pH meter, and the concentrations of compounds in each phase were determined by HPLC. Samples in n-octanol phase were diluted 10 times by ACN. Distribution coefficient, referred to as Dow, was calculated as the concentration of the test compound in the n-octanol phase divided by the corresponding concentration in the aqueous phase.

N#Cc1ccc(COc2cccc(C3CCN(Cc4nc5ccc(C(=O)O)cc5n4Cc4cncs4)CC3)n2)c(F)c1 [Compound 1 meglumine salt]
chemical stability [1]: generally stable

N#Cc1ccc(COc2cccc(C3CCN(Cc4nc5ccc(C(=O)O)cc5n4Cc4cncs4)CC3)n2)c(F)c1 [Freeform Type A]
logP (physchem): 4.78 | logD at 24 h (physchem; pH 7.2): 1.96 | solubility ([2]; 1,4-Dioxane, thermodynamic from solid, 1,4-Dioxane): 1900 to 6300 µg/mL (≈ 3260 to 10800 µM) | solubility ([2]; 2-MeTHF, thermodynamic from solid): 1900 to 6300 µg/mL (≈ 3260 to 10800 µM) | solubility ([2]; ACN, thermodynamic from solid): 1000 to 1900 µg/mL (≈ 1720 to 3260 µM) | solubility ([2]; Anisole, thermodynamic from solid): 1100 to 2100 µg/mL (≈ 1890 to 3600 µM) | solubility ([2]; CPME, thermodynamic from solid): 1100 to 2100 µg/mL (≈ 1890 to 3600 µM) | solubility ([2]; DMSO, thermodynamic from solid): > 40000 µg/mL | solubility ([2]; EtOAc, thermodynamic from solid): 2000 to 6700 µg/mL (≈ 3430 to 11500 µM) | Approximate solubility ([2]; H2O): S < 1.1 mg/mL | solubility ([2]; IPA, thermodynamic from solid): 1100 to 2200 µg/mL (≈ 1890 to 3780 µM) | solubility ([2]; IPAc, thermodynamic from solid): 1000 to 1900 µg/mL (≈ 1720 to 3260 µM) | solubility ([2]; MIBK, thermodynamic from solid): 1000 to 2000 µg/mL (≈ 1720 to 3430 µM) | solubility ([2]; MTBE, thermodynamic from solid): < 1000 µg/mL | solubility ([2]; MeOH, thermodynamic from solid): 6700 to 20000 µg/mL (≈ 11500 to 34300 µM) | Approximate solubility ([2]; THF): S > 38.0 mg/mL | solubility ([2]; Toluene, thermodynamic from solid): < 1100 µg/mL | solubility ([2]; n-Heptane, thermodynamic from solid): < 1000 µg/mL

N#Cc1ccc(COc2cccc(C3CCN(Cc4nc5ccc(C(=O)O)cc5n4Cc4cncs4)CC3)n2)c(F)c1 [Freeform Type C]
water uptake (DVS) ([3]; 25° C./80% RH): 0.12% | hygroscopicity ([3]; DVS, 25° C.): non-hygroscopic | Water uptake at 25° C./80% RH ([3]; DVS, 25° C./80% RH): 0.12 wt % | For change after DVS ([3]; XRPD after DVS test): No | form change after DVS test (XRPD) ([3]; after DVS test): no form change | S: Solubility ([4]; FaSSIF, 37° C., 1 hr): 2 µg/mL | FC: Form change ([4]; FaSSIF, 37° C., 1 hr): No | S: Solubility ([4]; FaSSIF, 37° C., 2 hrs): 7 µg/mL | FC: Form change ([4]; FaSSIF, 37° C., 2 hrs): No | S: Solubility ([4]; FaSSIF, 37° C., 4 hrs): 5 µg/mL | FC: Form change ([4]; FaSSIF, 37° C., 4 hrs): No | S: Solubility ([4]; FaSSIF, 37° C., 24 hrs): 3 µg/mL | FC: Form change ([4]; FaSSIF, 37° C., 24 hrs): No | FC: Form change ([4]; FeSSIF, 37° C., 1 hr): No | FC: Form change ([4]; FeSSIF, 37° C., 2 hrs): No | FC: Form change ([4]; FeSSIF, 37° C., 4 hrs): No | S: Solubility ([4]; FeSSIF, 37° C., 24 hrs): 8 µg/mL | FC: Form change ([4]; FeSSIF, 37° C., 24 hrs): No | S: Solubility ([4]; H2O, 37° C., 1 hr): 20 µg/mL | FC: Form change ([4]; H2O, 37° C., 1 hr): No | S: Solubility ([4]; H2O, 37° C., 2 hrs): 27 µg/mL | FC: Form change ([4]; H2O, 37° C., 2 hrs): No | S: Solubility ([4]; H2O, 37° C., 4 hrs): 20 µg/mL | FC: Form change ([4]; H2O, 37° C., 4 hrs): No | S: Solubility ([4]; H2O, 37° C., 24 hrs): 8 µg/mL | FC: Form change ([4]; H2O, 37° C., 24 hrs): No | S: Solubility ([4]; SGF, 37° C., 1 hr): 83 µg/mL | FC: Form change ([4]; SGF, 37° C., 1 hr): No | S: Solubility ([4]; SGF, 37° C., 2 hrs): 72 µg/mL | FC: Form change ([4]; SGF, 37° C., 2 hrs): No | S: Solubility ([4]; SGF, 37° C., 4 hrs): 75 µg/mL | FC: Form change ([4]; SGF, 37° C., 4 hrs): No | S: Solubility ([4]; SGF, 37° C., 24 hrs): 78 µg/mL | FC: Form change ([4]; SGF, 37° C., 24 hrs): No | form change of residual solids (XRPD) after solubility test ([4]; all the media (H2O, SGF, FaSSIF, FeSSIF), after 24 hrs): No form change | solubility compared with the other selected salts ([4]; all the media, 37° C.): lowest solubility | solubility at 24 h ([5]; pH 1.0 buffer, pH 1, aqueous buffer): 130 µg/mL (≈ 223 µM) | solubility at 24 h ([5]; pH 2.0 buffer, pH 2, aqueous buffer): 17 µg/mL (≈ 29.2 µM) | solubility ([5]; pH 1, aqueous buffer, pH 1.0 buffer): ≥ 130 µg/mL | solubility ([5]; pH 2, aqueous buffer, pH 2.0˜8.0 buffers): ≤ 34 µg/mL | thermodynamic stability relationship among freeform anhydrates [6]: thermodynamically more stable anhydrate; also recorded: thermodynamically more stable form | Form change ([7]; 25° C./60% RH/Open/1 week): No | Purity ([7]; 25° C./60% RH/Open/1 week): 96.58 Area % | solid-state stability: form change and purity decrease ([7]; 25° C./60% RH/open and 40° C./75% RH/open, 1 week): no form change or significant purity decrease | Form change ([7]; 40° C./75% RH/Open/1 week): No | Purity ([7]; 40° C./75% RH/Open/1 week): 96.69 Area % | Purity ([7]; Initial): 96.59 Area %

N#Cc1ccc(COc2cccc(C3CCN(Cc4nc5ccc(C(=O)O)cc5n4Cc4cncs4)CC3)n2)c(F)c1 [Freeform Type F]
Form change ([8]; after storage at RT): Change to Freeform Type J after storage at RT.

N#Cc1ccc(COc2cccc(C3CCN(Cc4nc5ccc(C(=O)O)cc5n4Cc4cncs4)CC3)n2)c(F)c1 [Freeform Type O]
Form change ([8]; after drying at RT under vacuum): Change to Freeform Type K after drying at RT under vacuum.

N#Cc1ccc(COc2cccc(C3CCN(Cc4nc5ccc(C(=O)O)cc5n4Cc4cncs4)CC3)n2)c(F)c1 [Meglumine salt Type B]
thermodynamic stability, Type A versus Type B [9]: thermodynamically more stable
